According to patent US20220395582A1, “COMPOSITIONS AND METHODS OF INDUCING DIFFERENTIATION OF A HAIR CELL” (Akouos, Inc., priority 2018, published 2022):

B1: mScarlet: nucleic acid vector with ITR, CMV promoter, mScarlet and bGHpA sequences (nucleic acid)
DNA: CCTGCAGGCAGCTGCGCGCTCGCTCGCTCACTGAGGCCGCCCGGGCGTCGGGCGACCTTTGGTCGCCCGGCCTCAGTGAGCGAGCGAGCGCGCAGAGAGGGAGTGGCCAACTCCATCACTAGGGGTTCCTGTGATGCGGTTTTGGCAGTACATCAATGGGCGTGGATAGCGGTTTGACTCACGGGGATTTCCAAGTCTCCACCCCATTGACGTCAATGGGAGTTTGTTTTGGCACCAAAATCAACGGGACTTTCCAAAATGTCGTAACAACTCCGCCCCATTGACGCAAATGGGCGGTAGGCGTGTACGGTGGGAGGTCTATATAAGCAGAGCTCGTTTAGTGAACCGTCAGATCGCCTGGAGACGCGTGAGCAAGGGCGAGGCAGTGATCAAGGAGTTCATGCGGTTCAAGGTGCACATGGAGGGCTCCATGAACGGCCACGAGTTCGAGATCGAGGGCGAGGGCGAGGGCCGCCCCTACGAGGGCACCCAGACCGCCAAGCTGAAGGTGACCAAGGGTGGCCCCCTGCCCTTCTCCTGGGACATCCTGTCCCCTCAGTTCATGTACGGCTCCAGGGCCTTCATCAAGCACCCCGCCGACATCCCCGACTACTATAAGCAGTCCTTCCCCGAGGGCTTCAAGTGGGAGCGCGTGATGAACTTCGAGGACGGCGGCGCCGTGACCGTGACCCAGGACACCTCCCTGGAGGACGGCACCCTGATCTACAAGGTGAAGCTCCGCGGCACCAACTTCCCTCCTGACGGCCCCGTAATGCAGAAGAAGACAATGGGCTGGGAAGCGTCCACCGAGCGGTTGTACCCCGAGGACGGCGTGCTGAAGGGCGACATTAAGATGGCCCTGCGCCTGAAGGACGGCGGCCGCTACCTGGCGGACTTCAAGACCACCTACAAGGCCAAGAAGCCCGTGCAGATGCCCGGCGCCTACAACGTCGACCGCAAGTTGGACATCACCTCCCACAACGAGGACTACACCGTGGTGGAACAGTACGAACGCTCCGAGGGCCGCCACTCCACCGGCGGCATGGACGAGCTGTACAAGTAAGCTGATCAGCCTCGACTGTGCCTTCTAGTTGCCAGCCATCTGTTGTTTGCCCCTCCCCCGTGCCTTCCTTGACCCTGGAAGGTGCCACTCCCACTGTCCTTTCCTAATAAAATGAGGAAATTGCATCGCATTGTCTGAGTAGGTGTCATTCTATTCTGGGGGGTGGGGTGGGGCAGGACAGCAAGGGGGAGGATTGGGAAGACAATAGCAGGCATGCTGGGGATGCGGTGGGCTCTATGGAGGAACCCCTAGTGATGGAGTTGGCCACTCCCTCTCTGCGCGCTCGCTCGCTCACTGAGGCCGGGCGACCAAAGGTCGCCCGACGCCCGGGCTTTGCCCGGGCGGCCTCAGTGAGCGAGCGAGCGCGCAGCTGCCTGCAGG
modifications: pITR-CMV-mScarlet-bGHpA

What was measured:
ATOH1, POU4F3, and GFI1 = test: Relative quantification of ATOH1, POU4F3 and GFI1 RNA in HEK293FT cells transfected with individual plasmids; type: cell-based; conditions: FIG. 6A
Description: FIG. 6A is a bar graph showing the relative quantification of ATOH1, POU4F3, and GFI1 (APG) RN in HEK293FT cells transfected with the individual plasmids of FIGS. 4A-C.
The data in FIGS. 6A and 6B show overexpression of ATOH1, POU4F3 and GFI-1 in HEK293FT cells that were transfected with the vectors of FIGS. 4A-4D.

[1] = test system: hair cells and supporting cells in cochlear explants; test: mScarlet positive hair cells and supporting cells in cochlear explants infected with AAVanc80, with and without TMP; type: cell-based, mouse; conditions: with and without 10 uM TMP, FIG. 10
Description: FIG. 9A is an image showing mScarlet positive cells in a P1-P3 mouse cochlea explant transfected with AAVanc80 vector at various MOIs. 10 μM TMP was added at a later time point.
FIG. 10 is an image showing mScarlet positive hair cells and supporting cells in a cochlear explants infected with AAVanc80 with and without 10 uM TMP that was added at a later time point.
(§1) HEK293FT cells were transfected with mScarlet and mScarlet-DD vectors (FIGS. 7A-7B). The data in FIGS. 8A and 8B show the functionality and reversibility of the destabilizing domain (DD) using fluorescence microscopy and flow cytometry, respectively.

HEK293FT cells [2] = test: Destabilizing domain (DD) functionality and reversibility, TMP dose response by fluorescence microscopy; type: cell-based; conditions: TMP 0.1, 1, 10, 20 and 100 μM, FIG. 8A
Description: FIG. 8A is a dose response curve showing the functionality and reversibility of the destabilizing domain (DD) using fluorescence microscopy. Serial dilutions of TMP (0.1 μM, 1 μM, 10 μM, 20 μM and 100 μM) were tested in the mScarlet and mScarlet-DD transfected HEK293FT cells.
as §1

HEK293FT cells [3] = test: mScarlet positive HEK293FT cells with AAVanc80 vector at various MOIs, with or without TMP; type: cell-based; conditions: 10 μM TMP added later, FIGS. 9A and 9B
Description: FIG. 9B is an image showing mScarlet positive HEK293FT cells transfected with AAVanc80 vector at various MOIs. 10 μM TMP was added at a later time point.
as §1

Molecule | ATOH1 and GFI-1 mRNA levels on overexpression of POU4F3 (ATOH1, POU4F3, and GFI1) | mScarlet expression in cochlear explants [1] | percentage of mScarlet positive cells (HEK293FT cells [2]) | mScarlet expression (HEK293FT cells [3])
POU4F3: nucleic acid vector with CMV promoter, human POU4F3 gene, 3×Flag, T2A, mScarlet and destabilizing domain | increase in ATOH1 and GFI-1 mRNA levels | – | – | –
mScarlet-DD: nucleic acid vector with ITR, CMV promoter, mScarlet, destabilizing domain (DD) and bGHpA sequences | – | only seen in the presence of TMP | increased proportionately with increasing concentration of TMP | primarily seen in mScarlet-DD transfected cells in the presence of TMP
B1 | – | seen in hair cells and supporting cells | remained constant regardless of TMP concentration | seen in all HEK293FT cells
